Experiments:
primary human monocytes = assay: TNF-α and IL-1β secretion in primary human monocytes incubated with CL; assay type: cell-based; conditions: CL alone, overnight
Description: Human monocytes were isolated from PBMCs by immunomagnetic negative selection using the EasySep™ human monocyte enrichment kit without CD16 depletion (STEMCELL™ Technologies).
100.000 of freshly isolated PBMCs or monocytes were mixed with stimulants to a final volume of 160 μL/well in round bottom 96-well plates.
(§1) After stimulation, supernatants were collected, centrifuged, and assayed for cytokine secretion, while cells were assayed for viability.
TNF-α and IP-10 were quantified in cell supernatants using DuoSet ELISA kits from R&D Systems and human IL-1β using Instant ELISA™ Kit from Invitrogen, according to the manufacturer’s instructions. Absorbance was read with a BioTek Synergy HT Microplate Readers.
Fig. 3 Saturated but not unsaturated CLs have pro-inflammatory properties. a RAW-Blue™ cells were incubated overnight with the indicated amount of CL or LPS, supernatants were collected, and NF-κB activation quantified via Quanti-Blue™ test and reported here as fold induction as compared to control. Unpaired t test: differences with respect to the control (Ctrl) are not significant if p > 0.05 (no symbol); *p ≤ 0.0007. b Immortalized BMDM cells were incubated overnight with the indicated amount of CL or LPS; supernatants were collected and TNF-α quantified via ELISA assay. c, d Primary human monocytes were incubated overnight with the indicated amount of CL or LPS with or without the NLRP3 inhibitor MCC950, supernatants were collected, and TNF-α and IL-1β were quantified via ELISA assay. Graphs are representative of experiments from six different donors. Unpaired t test: differences with respect to the control (Ctrl) are not significant if p > 0.05 (no symbol); *p ≤ 0.021. Each bar represents the mean + standard deviation of three biological replicates (n = 3). Graphs are representative of at least three independent experiments
C18:0 and C18:2 CLs’ pro-inflammatory activities were validated in primary monocytes isolated from human donor blood. C18:0 CL but not C18:2 CL reproduced LPS activity inducing TNF-α and IL-1β secretion in a dose-dependent manner (Fig. 3c, d).

primary BMDM cells = assay: TNF-α and IP-10 secretion in primary BMDMs incubated with CL or LPS alone; assay type: cell-based, murine; conditions: overnight
Description: Bone marrow was isolated from femurs and tibias of 10-week-old C57BL/6 mice killed by cervical dislocation. Briefly, bone marrow was flushed out with a syringe filled with DMEM, pelleted down, and resuspended and homogenized in complete medium (DMEM supplemented with 10% heat-inactivated FBS from South America, 2 mM glutamine, 50 U/mL penicillin, 50 μg/mL streptomycin, and 20% of supernatant taken from L929 cells). The cell suspension generated thereafter was then maintained in petri dishes for 7 days.
Primary BMDM cells were detached from petri dishes and seeded the day before the experiment in 96-well plates at 0.75 × 10^6 cells/mL (200 μL/well).
as §1
TNF-α and IP-10 were quantified in cell supernatants using DuoSet ELISA kits from R&D Systems and human IL-1β using Instant ELISA™ Kit from Invitrogen, according to the manufacturer’s instructions. Absorbance was read with a BioTek Synergy HT Microplate Readers. […]
Primary BMDM cells were incubated overnight with medium (ctrl) or C14:0 CL at the indicated concentrations. TNF-α and IP-10 were measured by ELISA in collected supernatants. […]

Row | SMILES | IL-1β secretion (primary human monocytes) | TNF-α secretion (primary human monocytes) | IP-10 secretion (primary BMDM cells) | TNF-α secretion (primary BMDM cells)
1 | CCCCCCCCCCCCCCCCCC(=O)OC[C@H](COP(=O)(O)OCC(O)COP(=O)(O)OC[C@@H](COC(=O)CCCCCCCCCCCCCCCCC)OC(=O)CCCCCCCCCCCCCCCCC)OC(=O)CCCCCCCCCCCCCCCCC (stereo partly shown) [C18:0 CL] | inducing | inducing |  | 
2 | CCCCCCCCCCCCCC(=O)OC[C@H](COP(=O)(O)OCC(O)COP(=O)(O)OC[C@@H](COC(=O)CCCCCCCCCCCCC)OC(=O)CCCCCCCCCCCCC)OC(=O)CCCCCCCCCCCCC (stereo partly shown) [C14:0 CL] |  |  | induces | induces

Source: article PMC6697720, “Saturation of acyl chains converts cardiolipin from an antagonist to an activator of Toll-like receptor-4” (Cellular and Molecular Life Sciences: CMLS, 2019)
